Earlier results, collected in US7135615B2, “Chromosome doubling method” (The Curators of the University of Missouri, priority 2001, dated 2006).

System: parthenogenetically induced haploid maize (Zea mays L.) seedlings
Settings: cited from earlier work

COc1cc2c(c(OC)c1OC)-c1ccc(OC)c(=O)cc1[C@@H](NC(C)=O)CC2 [colchicine]
haploid recovery rates (colchicine treatments of haploid maize seedlings, reported): 26–41%
recovery rates could drop as low as (colchicine treatments, affected by growing conditions): 0.8–3.1%
estimated selfing rate (previously used colchicine treatments): 5–15%
